Results as given in patent US10544112B2, “Identification of ebsulfur analogues with broad-spectrum antifungal activity” (priority 2017, dated 2020).
In brackets after ≈: the same amount, converted by molar mass. Read-outs that look alike come from different tables or passages of the source.

Tests used:
[1] = tested on: C. albicans ATCC 10231 (strain A); assay: ROS production assay (DCFH-DA); format: cell-based, Candida albicans; conditions: 1× and 2× MIC (H2O2 1 mM), 1-h treatment
Protocol: ROS production assay was performed as previously described with minor modifications. […] Once entering the cells, the DCFH-DA probe is first hydrolyzed to the non-fluorescent 2′,7′-dichlorodihydrofluorescein (DCFH) by cellular esterases. […] A colony of C. albicans ATCC 10231 (strain A) was used to inoculate 5 mL of PDB in a Falcon tube and grown overnight at 35° C. at 200 rpm.
Thus, whether the compounds of the invention would also induce ROS against C. albicans was studied. […] 2′,7′-dichlorodihydrofluorescin diacetate (DCFH-DA) was then used to detect and visualize ROS production (FIG. 5). As a positive control, cells were treated with H2O2, which is an inducer of hydroxyl radical formation.

[2] = tested on: Candida krusei ATCC 6258 (strain I); assay: Antifungal MIC determination (CLSI M27-A3, 96-well); format: cell-based; conditions: strain I; compounds 1-4n and AmB; 48 h, RPMI 1640
Protocol: (§1) Fungal MIC determination experiments were performed using untreated 96-well plates (Corning). Cells were counted either by using a hemocytometer (Hausser Scientific, Horsham, Pa., USA) or by measuring optical density at attenuance of 600 nm (OD600) by using a Genesys 20 spectrophotometer (Thermo Scientific, Waltham, Mass., USA). Spectrophotometric and colorimetric measurements in 96-well plates were performed using a SpectraMax M5 spectrometer (Molecular Devices, Sunnyvale, Calif., USA).
(§2) Yeast strains Candida albicans ATCC 10231 (strain A), C. albicans ATCC 64124 (strain B), and C. albicans ATCC MYA-2876(S) (strain C) were kindly provided by Dr. Jon Y. Takemoto (Utah State University, Logan, UT, USA). C. albicans ATCC MYA-90819(R) (strain D), C. albicans ATCC MYA-2310(S) (strain E), C. albicans ATCC 1237(R) (strain F), C. albicans ATCC MYA-1003(R) (strain G), Candida glabrata ATCC 2001 (strain H), Candida krusei ATCC 6258 (strain I), and Candida parapsilosis ATCC 22019 (strain J) were obtained from the American Type Culture Collection (ATCC, Manassas, Va., USA). The (S) and (R) indicate that ATCC reports these strains to be susceptible (S) and resistant (R) to ITC and FLC. The filamentous fungal strains Aspergillus flavus ATCC MYA-3631 (strain K), and Aspergillus terreus ATCC MYA-3633 (strain M) were also obtained from the American Type Culture Collection (ATCC, Manassas, Va., USA). Aspergillus nidulans ATCC 38163 (strain L) was kindly provided by Dr. Jon S. Thorson (University of Kentucky, Lexington, Ky., USA), respectively. Yeast strains were cultured at 35° C. Filamentous fungal strains were cultured at 25° C. and the spores were harvested. All fungal strains were cultured in RPMI 1640 medium (catalog # R6504, Sigma-Aldrich Chemical Co., St. Louis, Mo.) buffered to pH 7.0 with 0.165 M morpholinepropanesulfonic acid (MOPS) buffer (Sigma-Aldrich Chemical Co.).
(§3) The MIC values against fungal strains were determined based on a previously published protocol. MIC values for ebsulfur (2a) analogues against fungal cells were evaluated in 96-well plates as described in the CLSI document M27-A3 with minor modifications. […] Therefore, potato dextrose broth (PDB) was used to grow the yeast inocula of all strains tested, which were later diluted in RPMI 1640 medium to perform determination of MIC values. […] The tested compounds (10 mg/mL) were diluted to the working stocks (500 μg/mL) by addition of DMSO. Two-fold serial dilution of the working stocks was prepared by addition of RPMI 1640 medium (100 μL) and cell suspension (100 μL) to 96-well microtiter plate to achieve final drug and inoculum concentrations ranging from 12.5-0.02 μg/mL and 5×10^3 CFU/mL, respectively. Plates were incubated for 48 h at 35° C. […]

[3] = tested on: Candida albicans ATCC 10231 (strain A); assay: as above; format: cell-based; conditions: strain A; compounds 1-4n and AmB; 48 h, RPMI 1640
Protocol: as §1, §2, §3

[4] = tested on: Candida parapsilosis ATCC 22019 (strain J); assay: as above; format: cell-based; conditions: strain J; compounds 1-4n and AmB; 48 h, RPMI 1640
Protocol: as §1, §2, §3

[5] = tested on: Candida glabrata ATCC 2001 (strain H); assay: as above; format: cell-based; conditions: strain H; compounds 1-4n and AmB; 48 h, RPMI 1640
Protocol: as §1, §2, §3

[6] = tested on: Aspergillus flavus ATCC MYA-3631 (strain K); assay: Antifungal MIC determination, filamentous fungi spores; format: cell-based; conditions: all compounds
Protocol: as §1, §2
(§4) The MIC values against fungal strains were determined based on a previously published protocol. MIC values for ebsulfur (2a) analogues against fungal cells were evaluated in 96-well plates as described in the CLSI document M27-A3 with minor modifications. […] Therefore, potato dextrose broth (PDB) was used to grow the yeast inocula of all strains tested, which were later diluted in RPMI 1640 medium to perform determination of MIC values. […] The tested compounds (10 mg/mL) were diluted to the working stocks (500 μg/mL) by addition of DMSO. Two-fold serial dilution of the working stocks was prepared by addition of RPMI 1640 medium (100 μL) and cell suspension (100 μL) to 96-well microtiter plate to achieve final drug and inoculum concentrations ranging from 12.5-0.02 μg/mL and 5×10^3 CFU/mL, respectively. Plates were incubated for 48 h at 35° C.
(§5) MIC assays for the spore-forming filamentous fungi, such as strain A. flavus ATCC MYA-3631 (strain K), were performed in a similar fashion. The filamentous fungal strains were first cultured at 25° C. on potato dextrose agar (PDA) plates for 3-5 days or until confluent. Spores were collected by washing the surface of the agar plates with dd H2O (5 mL) and then isolated the spores by gravity filtration (the spores are H2O soluble). […] Researchers working with spores should wear a facemask to prevent spore inhalation.

[7] = tested on: Aspergillus nidulans ATCC 38163 (strain L); assay: as above; format: cell-based; conditions: strain L; spores
Protocol: as §1, §2, §4, §5

[8] = tested on: Aspergillus terreus ATCC MYA-3633 (strain M); assay: as above; format: cell-based; conditions: strain M; all compounds; spores
Protocol: as §1, §2, §4, §5

[9] = tested on: Candida and Aspergillus strains; assay: Antifungal MIC, summary over whole panel of fungal strains; format: cell-based; conditions: for antifungal activity after oxidizing the sulfur atom to sulfoxide: oxidized analogues
Protocol: as §1, §2, §3

[10] = tested on: C. albicans ATCC MYA-1003(R) (strain G); assay: microbe, parasite or virus in culture; format: cell-based, Candida albicans; conditions: strain G; compounds 1-4n and AmB; 48 h, RPMI 1640
Protocol: as §1, §2, §3

[11] = tested on: C. albicans ATCC 64124 (strain B); assay: microbe, parasite or virus in culture; format: cell-based, Candida albicans; conditions: strain B; compounds 1-4n and AmB; 48 h, RPMI 1640
Protocol: as §1, §2, §3

[12] = tested on: C. albicans ATCC MYA-1237(R) (strain F); assay: microbe, parasite or virus in culture; format: cell-based, Candida albicans; conditions: strain F; compounds 1-4n and AmB; 48 h, RPMI 1640
Protocol: as §1, §2, §3

[13] = tested on: C. albicans ATCC 90819(R) (strain D); assay: microbe, parasite or virus in culture; format: cell-based, Candida albicans; conditions: strain D; compounds 1-4n and AmB; 48 h, RPMI 1640
Protocol: as §1, §2, §3

[14] = tested on: C. albicans ATCC MYA-2876(S) (strain C); assay: Antifungal MIC determination (CLSI M27-A3, 96-well); format: cell-based, Candida albicans; conditions: strain C; compounds 1-4n and AmB; 48 h, RPMI 1640
Protocol: as §1, §2, §3

[15] = tested on: C. albicans ATCC MYA-2310(S) (strain E); assay: as above; format: cell-based, Candida albicans; conditions: strain E; compounds 1-4n and AmB; 48 h, RPMI 1640
Protocol: as §1, §2, §3

[16] = tested on: C. albicans ATCC 64124 (strain B); format: cell-based, Candida albicans
Protocol: The efficiency of the compounds to kill C. albicans ATCC 64124 (strain B) was monitored using a previously published protocol. The cell suspensions were prepared to achieve an inoculum of approximately 1-4×10^5 CFU/mL in RPMI 1640 medium at 35° C. […] After fungal cell addition, at 0, 3, 6, 9, 12, and 24 h, the tubes were vortexed and 100 μL aliquots were removed from each solution, spread onto PDA plates, and incubated at 35° C. Colony counts were determined after 24 h of incubation. The experiments were performed in duplicate (FIG. 2).
Time-kill assays with ebsulfur (2a) and analogue 3a (FIG. 2) were performed to determine the rate of fungicidal activity of the compounds if the invention.

Candida strains (A-J) = assay: Antifungal MIC, summary over panel of Candida strains; format: cell-based; conditions: Candida strains A-J
Protocol: as §1, §2, §3

Compound	ROS induction (DCFH-DA fluorescence) [1]	MIC-0 [2] [µg/mL]	MIC-0 [3] [µg/mL]	MIC-0 [4] [µg/mL]	MIC-0 [5] [µg/mL]	MIC-0 [6] [µg/mL]	MIC-0 [7] [µg/mL]	MIC-0 [8] [µg/mL]	antifungal activity after oxidizing the sulfur atom to sulfoxide [9]	MIC-0 [10] [µg/mL]	MIC-0 [11] [µg/mL]	MIC-0 [12] [µg/mL]	MIC-0 [13] [µg/mL]	MIC-0 [14] [µg/mL]	MIC-0 [15] [µg/mL]	time from which completely fungicidal ([16]; 2× MIC) [h]	MIC values, range over the panel of fungal strains ([9]; Candida and Aspergillus strains, controls, tested herein or previously published) [µg/mL]	fungicidal or fungistatic effect ([16]; 1× MIC)	fungicidal or fungistatic effect ([16]; 2× MIC)	MIC values against Candida strains, range (Candida strains (A-J)) [µg/mL]
OO [Compound H2O2, H2O2, reference compound]	highly fluorescent	–	–	–	–	–	–	–	–	–	–	–	–	–	–	–	–	–	–	–
CC(C)Cn1c(=O)c2ccccc2[s+]1[O-] (centres unmarked) [Compound 4e]	–	>12.5	>12.5	>12.5	>12.5	>12.5	>12.5	>12.5	completely abolished	>12.5	>12.5	>12.5	>12.5	>12.5	>12.5	–	–	–	–	–
C[C@@H]1[C@H](O)[C@@H](C)/C=C/C=C/C=C/C=C/C=C/C=C/C=C/[C@H](O[C@@H]2O[C@H](C)[C@@H](O)[C@H](N)[C@@H]2O)C[C@@H]2O[C@](O)(C[C@@H](O)C[C@@H](O)[C@H](O)CC[C@@H](O)C[C@@H](O)CC(=O)O[C@H]1C)C[C@H](O)[C@H]2C(=O)O [AmB, amphotericin B, reference compound]	–	3.9 (≈ 4.22 µM)	3.9 (≈ 4.22 µM)	1.95 (≈ 2.11 µM)	1.95 (≈ 2.11 µM)	15.6 (≈ 16.9 µM)	–	3.9 (≈ 4.22 µM)	–	3.9 (≈ 4.22 µM)	3.9 (≈ 4.22 µM)	3.9 (≈ 4.22 µM)	0.98 (≈ 1.06 µM)	–	–	6	0.98 to 15.6	–	–	–
O=c1c2ccccc2[s+]([O-])n1C1CCCCCCC1 (centres unmarked) [Compound 4n]	–	>12.5	>12.5	>12.5	>12.5	>12.5	>12.5	>12.5	completely abolished	>12.5	>12.5	>12.5	>12.5	>12.5	>12.5	–	–	–	–	–
O=c1c2ccccc2sn1-c1ccccc1 [Compound 2a, ebsulfur]	highly fluorescent	3.13 (≈ 13.8 µM)	12.5 (≈ 55 µM)	12.5 (≈ 55 µM)	6.25 (≈ 27.5 µM)	6.25 (≈ 27.5 µM)	6.25 (≈ 27.5 µM)	6.25 (≈ 27.5 µM)	–	>12.5	–	>12.5	3.13 (≈ 13.8 µM)	12.5 (≈ 55 µM)	6.25 (≈ 27.5 µM)	–	–	fungistatic	fungicidal	–
O=c1c2ccccc2sn1-c1ccc(Cl)cn1 [Compound 2n]	–	>12.5	12.5 (≈ 47.6 µM)	>12.5	>12.5	>12.5	>12.5	>12.5	–	12.5 (≈ 47.6 µM)	12.5 (≈ 47.6 µM)	12.5 (≈ 47.6 µM)	>12.5	12.5 (≈ 47.6 µM)	12.5 (≈ 47.6 µM)	–	–	–	–	> 12.5
O=c1c2ccccc2sn1C1CCCC1 [Compound 3k]	–	0.39 (≈ 1.78 µM)	0.39 (≈ 1.78 µM)	1.56 (≈ 7.11 µM)	0.78 (≈ 3.56 µM)	0.20 (≈ 0.912 µM)	0.10 (≈ 0.456 µM)	0.10 (≈ 0.456 µM)	–	0.78 (≈ 3.56 µM)	1.56 (≈ 7.11 µM)	0.39 (≈ 1.78 µM)	0.39 (≈ 1.78 µM)	0.78 (≈ 3.56 µM)	0.39 (≈ 1.78 µM)	–	–	–	–	0.39 to 1.56
CC(C)CCn1c(=O)c2ccccc2[s+]1[O-] (centres unmarked) [Compound 4f]	–	>12.5	>12.5	>12.5	>12.5	>12.5	>12.5	>12.5	completely abolished	>12.5	>12.5	>12.5	>12.5	>12.5	>12.5	–	–	–	–	–
